Data from BindingDB's records for doi:10.1016/s0960-894x(01)00004-x (Seoul National University, 2001).

These compounds were tested against Prostaglandin G/H synthase 1 (Oryctolagus cuniculus) (assay: Inhibitory activity against Prostaglandin G/H synthase 1 from rabbit renal microsomes).

Compound | IC50 [µM]
C=C[C@@]1(C)CC=C2C(CCC3[C@](C)(CC(=O)O)CCC[C@@]23C)C1 (stereo partly drawn) [((1S,4aR,7S)-1,4a,7-Trimethyl-7-vinyl-1,2,3,4,4a,6,7,8,8a,9,10,10a-dodecahydro-phenanthren-1-yl)-acetic acid] | 28.1
C[C@]1(CCF)CC=C2C(CCC3[C@](C)(C(=O)F)CCC[C@@]23C)C1 (stereo partly drawn) [(1R,4aR,7S)-7-(2-Fluoro-ethyl)-1,4a,7-trimethyl-1,2,3,4,4a,6,7,8,8a,9,10,10a-dodecahydro-phenanthrene-1-carbonyl fluoride] | 18.4
CC[C@@]1(C)CC=C2C(CCC3[C@](C)(C(=O)O)CCC[C@@]23C)C1 (stereo partly drawn) [(1R,4aR,7S)-7-Ethyl-1,4a,7-trimethyl-1,2,3,4,4a,6,7,8,8a,9,10,10a-dodecahydro-phenanthrene-1-carboxylic acid] | 229
C=C[C@@]1(C)CC=C2C(CCC3[C@](C)(C(=O)NO)CCC[C@@]23C)C1 (stereo partly drawn) [(1R,4aR,7S)-1,4a,7-Trimethyl-7-vinyl-1,2,3,4,4a,6,7,8,8a,9,10,10a-dodecahydro-phenanthrene-1-carboxylic acid hydroxyamide] | 45.6
C=C[C@@]1(C)CC=C2C(CCC3[C@](C)(CO)CCC[C@@]23C)C1 (some centres not stated) [acanthol] | 791
C=C[C@@]1(C)CC=C2C(CCC3[C@](C)(C(=O)OC)CCC[C@@]23C)C1 (stereo partly drawn) [(1R,4aR,7S)-1,4a,7-Trimethyl-7-vinyl-1,2,3,4,4a,6,7,8,8a,9,10,10a-dodecahydro-phenanthrene-1-carboxylic acid methyl ester] | > 1000
C=C[C@@]1(C)CC=C2C(CCC3[C@](C)(CCC/C=C/C(=O)O)CCC[C@@]23C)C1 (stereo partly drawn) [(E)-6-((1R,4aR,7S)-1,4a,7-Trimethyl-7-vinyl-1,2,3,4,4a,6,7,8,8a,9,10,10a-dodecahydro-phenanthren-1-yl)-hex-2-enoic acid] | 32.7
